According to US20260184706A1, “PHENYLSULFONAMIDE DERIVATIVES, PREPARATION METHOD THEREFOR, AND PHARMACEUTICAL COMPOSITION FOR PREVENTION OR TREATMENT OF CANCER CONTAINING SAME AS ACTIVE INGREDIENT” (Korea Research Institute of Chemical Technology, priority 2022, published 2026):

Tested on: ATF4
Assay: Inhibition of ATF4, downstream factor of ISR, in HT-1080 cells, Western blot (FIG. 1)
Type: cell-based, human
Details: amino acid deficiency, compound 50 nM, 24 hours
Description: <Experimental Example 5> Evaluation of Inhibitory Efficacy of ISR-Related Kinase GCN2 Under Amino Acid Deficiency Condition Using Western Blot
HT-1080 cells, a human fibrosarcoma cell line, were cultured in RPMI-1640 medium supplemented with 10% FBS, penicillin (penicillin; 100 IU/ml), and streptomycin (streptomycin; 100 μg/ml). Cells (1×10^6 cells/ml) were seeded onto 100 mm plates (polypropylene tissue culture plate) and incubated for 24 hours in a 37° C., 5% CO2 incubator before being used for experiments.
The following method was used to achieve amino acid deficiency conditions in cells. After 24 hours of cell culture, the cells were cultured in amino acids and L-glutamine-free RPMI-1640 medium supplemented with 10% FBS, penicillin (100 IU/ml), and streptomycin (100 μg/ml). After 24 hours of cell culture in RPMI-1640 without amino acids and L-glutamine, the compound prepared at a concentration of 50 nM was dispensed onto each plate and cultured for 24 hours in a 37° C., 5% CO2 incubator.
In order to measure the signal transduction inhibitory efficacy of GCN among the ISR-related kinases according to the present invention, the following experiment was performed using SDS-PAGE. The fibrosarcoma cell line HT-1080 cells cultured on plates as described above were washed with PBS after removing the culture medium. After removing PBS, the cells were lysed by adding a radio-immunoprecipitation assay buffer (RIPA buffer) containing 50 mM Tris (pH 7.4), 150 mM NaCl, 1% NP-40, 0.5% sodium deoxycholate, 2 mM sodium fluoride, 2 mM EDTA, 0.1% SDS, and a protease/phosphatase inhibitor cocktail to the plate. After centrifugation at 4° C., 13,000×g for 15 minutes, the protein in the upper layer was collected, and the protein concentration was measured at 562 nm using BCA (bicinchoninc acid) reagent, and the amount of protein in all samples was prepared at 20-50 μg.
After making the total volume the same using the sample buffer and RIPA buffer, it was heated at 97° C. for 5 minutes. Then, electrophoresis was performed on 8% or 12% SDS-PAGE at 80 V for 30 minutes and at 160 V for 1 hour and 30 minutes. After electrophoresis, the SDS-PAGE gel was transferred to an NC membrane (nitrocellulose membrane) at 90 V for 2 hours. The NC membrane was placed in TBST (tris buffer saline tween-20; 20 mM tris, 137 mM sodium chloride, 0.1% tween-20, pH 8.0) containing 5% non-fat skim milk, placed on a shaker, and reacted at room temperature for 1 hour.
Each primary antibody was diluted in TBST containing 5% non-fat skim milk, poured onto the NC membrane, and reacted at 4° C. for 24 hours. The membrane was washed three times for 10 minutes each with TBST. The secondary antibodies (anti-rabbit IgG and anti-mouse IgG labeled with horseradish peroxidase (HRP)) were diluted in TBST containing 5% non-fat skim milk and reacted with the membrane at room temperature for 1 hour. Upon completion of the reaction, the membrane was washed three times with TBST for 10 minutes each. Protein expression bands were detected by a chemiluminescence image analyzer (Image Quant LAS 500) after the ECL solution was reacted with the NC membrane.
FIG. 1 is a set of photographs confirming the mechanism proteins that react upon ISR activation, wherein the numbers correspond to example numbers of the present invention. […] They are also known to have an effect on increasing the expression of CHOP (GADD153), the most downstream factor of the mechanism. […] Thus, in addition to the activation of ISR by amino acid deficiency, a significant effect can be expected on the mechanism of inhibition of the activity of PERK, an ISR-related kinase, due to endoplasmic reticulum stress response.

| Compound | inhibitory effect on ATF4 (FIG. 1) |
| --- | --- |
| COc1ncc(Cl)cc1S(=O)(=O)Nc1ccc(F)c(-n2cc(C(F)F)c3nc(N)ncc3c2=O)c1F [Example 22, N-(3-(2-amino-8-(difluoromethyl)-5-oxopirido[4,3-d]pyrimidin-6(5H)-yl)-2,4-difluorophenyl)-5-chloro-2-methoxypyridine-3-sulfonamide] | excellent inhibitory effects |
| Nc1ncc2c(=O)n(-c3c(F)ccc(NS(=O)(=O)c4cccc5ccccc45)c3F)ccc2n1 [Example 29, N-(3-(2-amino-5-oxopirido[4,3-d]pyrimidin-6(5H)-yl)-2,4-difluorophenyl)naphthalene-1-sulfonamide] | excellent inhibitory effects |
| COc1ncc(Cl)cc1S(=O)(=O)Nc1ccc(F)c(-n2c(=O)c3cnc(N)nc3n(C)c2=O)c1F [Example 44, N-(3-(7-amino-1-methyl-2,4-dioxo-1,4-dihydropyrimido[4,5-d]pyrimidin-3(2H)-yl)-2,4-difluorophenyl)-5-chloro-2-methoxypyridine-3-sulfonamide] | excellent inhibitory effects |
| COc1ncc(Br)cc1S(=O)(=O)Nc1ccc(F)c(-n2c(=O)c3cnc(N)nc3n(C)c2=O)c1F [Example 46, N-(3-(7-amino-1-methyl-2,4-dioxo-1,4-dihydropyrimido[4,5-d]pyrimidin-3(2H)-yl)-2,4-difluorophenyl)-5-bromo-2-methoxypyridine-3-sulfonamide] | excellent inhibitory effects |
